Consider six molecules from US20170325459A1, “BICYCLIC COMPOUNDS AS PEST CONTROL AGENTS” (Bayer CropScience Aktiengesellschaft, priority 2014, published 2017).

For one data set, the system named is Myzus persicae. Nature of the data set: Myzus persicae spray test. Type of data set: in vivo. The settings on record: application rate 500 g/ha, Chinese cabbage leaf discs, after 6 days; for pest or weed control at 500 g/ha: Myzus persicae, foliar, 144 h, read-out: efficacy (aphids killed). On the procedure: Myzus persicae—Spray Test Solvent: 78 parts by weight of acetone • • 1.5 parts by weight of dimethylformamide Emulsifier: alkylaryl polyglycol ether To produce a suitable active ingredient formulation, 1 part by weight of active ingredient is dissolved using the specified parts by weight of solvent and made up with water containing an emulsifier concentration of 1000 ppm until the desired concentration is attained. To produce further test concentrations, the formulation is diluted with emulsifier-containing water. Discs of Chinese cabbage leaves (Brassica pekinensis) infested by all stages of the green peach aphid (Myzus persicae) are sprayed with an active ingredient formulation of the desired concentration. After 6 days, the efficacy in % is determined. 100% means that all the aphids have been killed and 0% means that none of the aphids have been killed.

The test system of the next data set is Phaedon cochleariae. Nature of the data set: Phaedon cochleariae spray test. Format: in vivo. The conditions noted are these: application rate 500 g/ha, Chinese cabbage leaf discs, after 7 days. As to the method: Phaedon cochleariae—Spray Test
(§1) Solvent: 78.0 parts by weight of acetone • • 1.5 parts by weight of dimethylformamide
(§2) Emulsifier: alkylaryl polyglycol ether
(§3) To produce a suitable active ingredient formulation, 1 part by weight of active ingredient is dissolved using the specified parts by weight of solvent and made up with water containing an emulsifier concentration of 1000 ppm until the desired concentration is attained. To produce further test concentrations, the formulation is diluted with emulsifier-containing water.
After 7 days, the efficacy in % is determined. 100% means that all the beetle larvae have been killed and 0% means that none of the beetle larvae have been killed.

A short description of data set [1]: log P by HPLC (OECD Guideline 117), method [a] acidic range pH 2.7. Format: physicochemical. The conditions noted are these: for chromatographic logP: reversed-phase (RP) C18 HPLC column. On the procedure:
(§4) The log P values were determined in accordance with OECD Guideline 117 (EC Directive 92/69/EEC) by HPLC (high-performance liquid chromatography) using reversed-phase (RP) columns (C18), by the following methods: [a] The LC-MS determination in the acidic range is carried out at pH 2.7 with 0.1% aqueous formic acid and acetonitrile (contains 0.1% formic acid) as eluents; linear gradient from 10% acetonitrile to 95% acetonitrile. [b] LC-MS determination in the neutral range is effected at pH 7.8 with 0.001 molar aqueous ammonium hydrogencarbonate solution and acetonitrile as eluents; linear gradient from 10% acetonitrile to 95% acetonitrile. Calibration is effected using unbranched alkan-2-ones (having 3 to 16 carbon atoms) with known log P values (log P values determined on the basis of the retention times by linear interpolation between two successive alkanones).

The nature of data set [2]: log P by HPLC (OECD Guideline 117), method [b] neutral range pH 7.8. Format: physicochemical. The settings on record: for chromatographic logP: reversed-phase (RP) C18 HPLC column. As to the method:
as §4

The next data set relates to Boophilus microplus. Put plainly: Boophilus microplus injection test. Type of data set: in vivo. The conditions noted are these: application rate 20 μg/animal, injection into engorged adult female cattle ticks, assessed after 7 days. As to the method: Boophilus microplus—Injection Test Solvent: dimethyl sulphoxide To produce a suitable active ingredient formulation, 10 mg of active ingredient are mixed with 0.5 ml of solvent and the concentrate is diluted to the desired concentration with solvent. 1 μl of the active ingredient solution is injected into the abdomen of 5 engorged adult female cattle ticks (Boophilus microplus). The animals are transferred into dishes and kept in a climate-controlled room. Efficacy is assessed after 7 days by laying of fertile eggs. Eggs which are not visibly fertile are stored in a climate-controlled cabinet until the larvae hatch after about 42 days. An efficacy of 100% means that none of the ticks has laid any fertile eggs; 0% means that all the eggs are fertile.

For a further data set, the system named is Tetranychus urticae. Nature of the data set: Tetranychus urticae spray test, OP-resistant. Format: in vivo. The conditions noted are these: application rate 500 g/ha, bean leaf discs, after 6 days. As to the method:
Tetranychus urticae—Spray Test, OP-Resistant
as §1, §2, §3
Discs of bean leaves (Phaseolus vulgaris) infested with all stages of the greenhouse red spider mite (Tetranychus urticae) are sprayed with an active ingredient formulation of the desired concentration.
After 6 days, the efficacy in % is determined. 100% meant that all the spider mites have been killed and 0% means that no spider mites have been killed.

Broadly, the chromatographic logP is lipophilicity estimated from chromatographic retention. Lower therefore signals a more hydrophilic compound. As to `Clc1cccc(-c2ccc3nc(-c4cccnc4)sc3c2)c1` [compound 7], in the data set with Myzus persicae, the pest or weed control at 500 g/ha turned out to be 100%. The “efficacy (beetle larvae killed)” value in the data set on Phaedon cochleariae is 83%. For the same molecule, the chromatographic logP in data set [1] amounted to 4.32; in data set [2], 4.49.
Regarding `c1cncc(-c2nc3ccc(-n4ccnc4)cc3s2)c1` [compound 25, 6-(1H-Imidazol-1-yl)-2-(pyridin-3-yl)-1,3-benzothiazole], in the data set with Myzus persicae, the pest or weed control at 500 g/ha amounted to 90%. In the data set with Boophilus microplus, the “efficacy (laying of fertile eggs)” value was 80%. Further, the chromatographic logP in data set [2] amounted to 1.64.
Regarding `FC(F)(F)c1ccn(-c2ccc3nc(-c4cccnc4)sc3c2)n1` [compound 28, 2-(Pyridin-3-yl)-6-[3-(trifluoromethyl)-1H-pyrazol-1-yl]-1,3-benzothiazole], the pest or weed control at 500 g/ha with Myzus persicae worked out at 100%. For the same molecule, the “efficacy (laying of fertile eggs)” value in the data set on Boophilus microplus is given as 80%. For the same molecule, the chromatographic logP in data set [2] worked out at 3.46.
As for `Cc1ccccc1-c1ccc2nc(-c3cccnc3)sc2c1` [compound 2], the “efficacy (aphids killed)” value with Myzus persicae turned out to be 100%. The “efficacy (spider mites killed)” value with Tetranychus urticae is 90%. Also, the “logP[a]” value in data set [1] amounted to 4.08. Moreover, the “logP[b]” value in data set [2] stood at 4.24.
Consider `Clc1ccc(-c2ccc3nc(-c4cccnc4)sc3c2)cc1` [compound 8], for which the “efficacy (beetle larvae killed)” value in the data set with Phaedon cochleariae was found to be 83%. The “logP[a]” value in data set [1] is recorded as 4.43.
For `Cn1c(=O)cnn(-c2ccc3nc(-c4cccnc4)sc3c2)c1=O` [compound 56, 4-Methyl-2-[2-(pyridin-3-yl)-1,3-benzothiazol-6-yl]-1,2,4-triazine-3,5(2H,4H)-dione], the pest or weed control at 500 g/ha in the data set with Myzus persicae came out at 90%. Further, the chromatographic logP in data set [1] is 1.79; in data set [2] it was 1.84.
